Source: patent US8401609B2, “System, method and applications involving identification of biological circuits such as neurological characteristics” (The Board of Trustees of the Leland Stanford Junior …, priority 2007, dated 2013)
Entries after “also recorded” stand apart in the source; their conditions may differ. Read-outs that look alike come from different tables or passages of the source.

Legend:
dentate gyrus (DG) = assay: VSDI of evoked DG activity in acute hippocampal slices from treated animals; assay type: in vivo, rats; conditions: for evoked DG activity: 2-week dosing
Description: (§1) VSDI with a digital camera system optimized for high speed, sensitivity, and resolution was used to observe the activity of intact networks within acute horizontal slices prepared from the ventral hippocampus of adult, female rats (FIG. 1A). Slices were bath loaded with the fast-response voltage-sensitive dye di-4-ANEPPS. After loading, slices were stimulated with standardized electrical pulse trains and activity was recorded with a 5 ms frame rate and 25 um spatial resolution. […] To extract reliable quantitative features of the network response from the high-speed VSDI data, cross-correlation analysis was employed to take advantage of the fact that the evoked responses occur with a uniform fast time course and delay following stimulation and that reverberatory oscillations or changes in response phase were never observed under these conditions (FIGS. 1C, 1D, 10 and 11). This cross-correlation analysis generated two plots, one corresponding to the maximal response amplitude of each pixel (FIG. 1D, top right, FIG. 11B, right), and the other corresponding to the time at which this maximal amplitude occurred (“phase,” FIG. 1D, top left, FIG. 11B, left). Phase values were consistent in the regions responding to stimulation, which were isolated computationally for further analysis (FIG. 1D, bottom, FIG. 12). The area of this region of interest and the mean amplitude of pixels in the region were then computed, and local network response (“total activity”) was calculated as the mean signal amplitude multiplied by the area of the region of interest. This measure was linear with the applied stimulus current, making it a quantitative and reliable indicator of network activity across animals (FIG. 2B).
(§2) To determine the network activity changes associated with these induced depression-related behavioral phenotypes, acute hippocampal slices were generated from the same animals for high-speed VSDI. Both the DG and CA1 networks were specifically probed for the reasons described above, anticipating that there would likely be different effects in each local network that might nonetheless each be linked to the behavioral phenotype. […] In these and all experiments, the experimenters were always blinded to treatment groups. […] The activity of the DG relative to that of CA1 has consistently provided a reliable predictor of depression-related behavioral phenotypes (FIG. 2E) that was robust to experimental variation and allowed for quantitative comparisons between individual animals.
The following algorithms provide an example implementation for use in analyzing the VSDI data collected according to the methods and systems described herein. To begin the analysis, the raw VSDI data were imported into a software application, such as MATLAB (Mathworks, Natick, Mass.). The data was represented as an initial reference frame (F), followed by each imaging data frame, which contained differential fluorescence values (ΔF). For each pixel and frame, the ΔF/F value was calculated. Each temporal frame was then spatially smoothed using a 3×3 pixel digital Gaussian kernel (σ=1):
(§3) After extracting the region of interest, the mean correlation amplitude of pixels within this region and the total area of the region of interest (as a percentage of frame size) were then calculated. The mean amplitude multiplied by this area (“total activity”) was the final statistic used to measure system response for the voltage sensitive dye imaging data. Even though voltage changes due to glia can be observed with voltage sensitive dyes, the total activity measures reported here likely indicate only neuronal responses to stimulation, as opposed to the slower responses of hippocampal glia that are not appreciably sensitive to AMPA and NMDA block especially given the short latency to peak of the VSDI traces (6.3+/−0.6 ms for 2 Hz stimulations), the lack of summation of responses following 2 Hz stimulation, and the reliance of the signal on AMPA and NMDA transmission (FIG. 1B).

CA1 = assay: VSDI of evoked CA1 activity in acute hippocampal slices from treated animals; assay type: in vivo, rats; conditions: for evoked CA1 activity: 2-week dosing, normalized by control mean; for CA1 VSDI response: NNS protocol
Description: as §1
To determine the network activity changes associated with these induced depression-related behavioral phenotypes, acute hippocampal slices were generated from the same animals for high-speed VSDI. […] The activity of the DG relative to that of CA1 has consistently provided a reliable predictor of depression-related behavioral phenotypes (FIG. 2E) that was robust to experimental variation and allowed for quantitative comparisons between individual animals.
The following algorithms provide an example implementation for use in analyzing the VSDI data collected according to the methods and systems described herein. […] The data was represented as an initial reference frame (F), followed by each imaging data frame, which contained differential fluorescence values (ΔF). For each pixel and frame, the ΔF/F value was calculated. […]
After extracting the region of interest, the mean correlation amplitude of pixels within this region and the total area of the region of interest (as a percentage of frame size) were then calculated. […]

[1] = system: activity of the DG relative to CA1; assay: VSDI DG-CA1 relative activity, per slice, averaged per animal; assay type: in vivo, rats; conditions: for DG-CA1 relative activity: NNS protocol
Description: as §2, §3

[2] = system: BrdU+ cells in the hippocampus; assay: Unbiased stereology and phenotyping of BrdU+ cells (hippocampal neurogenesis); assay type: in vivo, rats; parameters: newborn (BrdU+) cell density: scale not given here
Description: BrdU (50 mg/kg/day) was administered daily during the second week of fluoxetine or vehicle.
BrdU (50 mg/kg/day) was administered concurrently with fluoxetine or vehicle.
Next changes in neurogenesis associated with these bidirectional changes in behavior and network activity were probed for, to determine if the network dynamics metric depends chiefly on a single biological mechanism or instead retains its validity across fundamentally different mechanisms that may underlie CMS and antidepressant responses. Neurogenesis appears to be strongly linked to antidepressant effects on the novelty-suppressed feeding task, but has not been clearly implicated in depression-related behavioral measures like the FST or in depression induction involving chronic mild stress. […] To directly investigate whether the network and behavioral effects of both CMS and antidepressant treatment could depend in part on a common underlying neurogenesis mechanism, bromodeoxyuridine (BrdU) was administered to label dividing cells during the last week of treatment in the experiment described in connection with FIG. 3, and blinded immunohistological counts from the hippocampus contralateral to that used for VSDI were conducted with unbiased stereology procedures, to determine the total number of newborn cells (FIG. 4A, 4C). For this analysis the hippocampal formation was divided into two components, dorsal and ventral. The ventral hippocampus is thought to be more involved in mood regulation. Thus, the acute slice VSDI experiments were conducted in ventral hippocampus.
(§4) To quantify effects of the NNS antidepressant treatment on the number of newborn cells and to confirm the selective reduction of hippocampal neurogenesis by irradiation, BrdU was injected during the week of drug treatment and conducted stereological counts as described above. […] Additionally, to assess the neurogenic environment at the time of physiological analysis, the immature neuronal marker doublecortin (Dcx) was employed.

Dcx+ cells = assay: Doublecortin (Dcx) staining of immature neurons; assay type: in vivo, rats; conditions: NNS protocol, at time of physiological analysis
Description: as §4

[3] = system: acute horizontal slices prepared from the ventral hippocampus; assay: Pharmacological dissection of the VSDI signal in acute hippocampal slices; assay type: cell-based, rats
Description: GABAzine (20 μM) and TTX (1 μM) were applied subsequently to confirm signal extinction.
VSDI with a digital camera system optimized for high speed, sensitivity, and resolution was used to observe the activity of intact networks within acute horizontal slices prepared from the ventral hippocampus of adult, female rats (FIG. 1A). Slices were bath loaded with the fast-response voltage-sensitive dye di-4-ANEPPS. After loading, slices were stimulated with standardized electrical pulse trains and activity was recorded with a 5 ms frame rate and 25 um spatial resolution. […] To extract reliable quantitative features of the network response from the high-speed VSDI data, cross-correlation analysis was employed to take advantage of the fact that the evoked responses occur with a uniform fast time course and delay following stimulation and that reverberatory oscillations or changes in response phase were never observed under these conditions (FIGS. 1C, 1D, 10 and 11). […] The area of this region of interest and the mean amplitude of pixels in the region were then computed, and local network response (“total activity”) was calculated as the mean signal amplitude multiplied by the area of the region of interest. This measure was linear with the applied stimulus current, making it a quantitative and reliable indicator of network activity across animals (FIG. 2B).

[4] = NNS protocol, normalized by control mean
[5] = CMS five weeks or control, fluoxetine during final two weeks
[6] = 2-week dosing, 48-hour delay, mean percent time

## CNCCC(Oc1ccc(C(F)(F)F)cc1)c1ccccc1 (stereo not drawn) [fluoxetine]
Dentate gyrus (DG); normalized by control mean
  evoked DG activity: increased activity in DG
Dentate gyrus (DG); NNS protocol, irradiated animals
  DG VSDI response: no fluoxetine-induced differences
Dentate gyrus (DG); [4]
  DG active network area: modulated similarly to the total activity measure
  DG mean signal amplitude: not modulated
Dentate gyrus (DG); NNS protocol, sham irradiation
  DG VSDI response: significantly increased response; also recorded: neurogenesis dependent increase of DG activity; also recorded: increased DG activity
CA1
  evoked CA1 activity: reduced activity in CA1
  CA1 VSDI response: significantly decreased response; also recorded: decreased CA1 activity
CA1; irradiated animals
  CA1 VSDI response: unaffected by irradiation
[1]; [5]
  activity of DG relative to CA1: significantly increased this statistic in both CMS and control groups
[1]; irradiated animals
  DG-CA1 relative activity: not following irradiation; also recorded: relied similarly on hippocampal neurogenesis
[1]; sham irradiation
  DG-CA1 relative activity: significant increases; also recorded: increased the activity of DG relative to that of CA1
[2]; NNS protocol
  total number of newborn neurons (BrdU+/NeuN+) in the DG: specifically increased the total number of newborn neurons; also recorded: selective increase in neurogenesis
[2]; dorsal hippocampus
  BrdU+ cell density, effect in words: no such effects were observed
[2]; dorsal hippocampus, CMS+fluoxetine
  newborn (BrdU+) cell density: 3.41 cells/mm^3
[2]; dorsal hippocampus, fluoxetine without CMS
  newborn (BrdU+) cell density: 3.03 cells/mm^3
[2]; ventral hippocampus, CMS+fluoxetine
  newborn (BrdU+) cell density: 2.38 cells/mm^3
[2]; ventral hippocampus, CMS/fluoxetine experiment
  BrdU+ neuron density (NeuN, Dcx phenotyping): increased number of new neurons; also recorded: specifically increased
[2]; ventral hippocampus, fluoxetine without CMS
  newborn (BrdU+) cell density: 2.47 cells/mm^3
[2]; ventral hippocampus, in the presence and absence of CMS
  BrdU+ cell density, effect in words: increased number of new cells; also recorded: robustly increased
[2]; weeklong fluoxetine 20 mg/kg/day, BrdU concurrently
  total BrdU+ cells per hippocampus: increased numbers of new cells; also recorded: increased the BrdUi cell density
Dcx+ cells
  doublecortin (Dcx) staining, number of Dcx+ cells: unaffected; also recorded: did not affect the number of Dcx+ cells
adult, female rats; [6]
  FST swimming: associated increases
adult, female rats; [5]
  FST mobility behaviors (swimming and climbing): associated increases in mobility behaviors
adult, female rats; CMS five weeks or control, fluoxetine during final two weeks, 48 hour delay
  FST immobility: decreased immobility in both control and CMS groups; also recorded: reversing the behavioral effects of CMS
adult, female rats; NNS protocol, sham irradiation
  FST swimming: increases in swimming

## NS(=O)(=O)c1cccc2c1c([N+](=O)[O-])cc1nc(O)c(O)nc12 [NBQX]
[3]; NBQX application 10 μM, evoked by electrical stimulation
  VSDI signal: greatly reduced; also recorded: nearly abolished the signal

## NC(CCCP(=O)(O)O)C(=O)O [D-AP5]
[3]; concurrent D-AP5 application 25 μM with NBQX
  VSDI signal: abolished; also recorded: extinguished the signal

## CN(C)CCCN1c2ccccc2CCc2ccccc21 [imipramine]
Dentate gyrus (DG); normalized by control mean
  evoked DG activity: increased activity in DG
CA1
  evoked CA1 activity: reduced activity in CA1

## O=C(CCCN1CCC(O)(c2ccc(Cl)cc2)CC1)c1ccc(F)cc1 [haloperidol]
Dentate gyrus (DG); normalized by control mean
  evoked DG activity: increased in antidepressant, but not haloperidol; also recorded: no effect
[1]; 2-week dosing
  relative activity between DG and CA1: absent
adult, female rats; [6]
  FST climbing: No such effects were observed
  FST swimming: No such effects were observed
